Experimental data as given in patent publication US20250281466A1, “USE OF CLOPIDOGREL OR COMBINATIONS THEREOF TO TREAT AMYOTROPHIC LATERAL SCLEROSIS, DAMAGES CAUSED BY THE NORMAL AGING PROCESS, NERVE INJURIES, MUSCULAR DYSTROPHY, STRENUOUS PHYSICAL ACTIVITIES AND OTHER CONDITIONS THAT AFFECT SYNAPSES AS WELL AS SKELETAL MUSCLES” (Brown University, priority 2024, published 2025).
Read-outs that look alike come from different tables or passages of the source.

Columns and labels:
SOD1^G93A mice [1] = details: EDL of P120 SOD1^G93A mice, versus vehicle, *p<0.05, n=7-8
Procedure: (§1) We treated SOD1^G93A mice with either vehicle or Clopidogrel (1 mg/kg) for 30 days starting at symptom onset (90 days old). […] The EDL and TA are hindlimb muscles mostly composed of fast-twitch fibers that play similar function in leg movement. These muscles are adjacent to each other and are affected early in ALS38.
Discussion of Research Design (current) and Experimental Methods: Currently Disclosed Aim 1A: Identify the optimal Clopidogrel dose to protect NMJs from ALS.

SOD1^G93A mice [2] = details: Clopidogrel 1 mg/kg for 30 days from 90 days old, versus vehicle (FIG. 3C)
Procedure: as §1

SOD1^G93A mice [3] = details: P120 SOD1^G93A mice
From the text: In FIGS. 4A-4H, DigiGait™ was used for gate analysis of P120 SOD1^G93A mice treated with Vehicle or the P2Y12 antagonist Clopidogrel. […] Scale bar=10 μm.
To this end, before sacrificing mice for histological analysis, we examined the gait patterns of SOD1^G93A mice treated with Clopidogrel and vehicle using the DigiGait™ system.

mouse model of ALS = test system: mouse model of ALS
From the text: FIGS. 11A-11F provide a summary of Clopidogrel treatment on mouse model of ALS. FIG. 11A (control) and FIG. 11B provide images showing neuromuscular junctions (NMJs) treated with vehicle (control) and Clopidogrel. Blue depicts axons and Magenta muscle region in contact with motor axons.
FIGS. 11A-11F provide a summary of Clopidogrel treatment on a mouse model of ALS. FIG. 11A (control, left) and FIG. 11B (Clopidogrel, right) provide images showing neuromuscular junctions (NMJs) treated with vehicle (control, left) and Clopidogrel (right). Blue (or grey in upper panels) depicts axons and Magenta (grey in lower panels) muscle region in contact with motor axons.

SOD1^G93A mice [4] = details: SOD1^G93A mice examined at 15 and 30 days after treatment starting at 90 days of age, compared to vehicle (FIG. 5B)
From the text: NeuroScore involved observing the ability of mice to control the position and mobility of both hindlimbs independently of each other. In this 0-4 point scoring system, 0 represents normal control and 4 represents complete loss of the ability to command hindlimb movement (FIG. 5A).
We also assessed disease progression in mice using the neurological scoring system (NeuroScore) which is used to determine disease stage in SOD1^G93A mice. NeuroScore involved observing the ability of mice to control the position and mobility of both hindlimbs independently of each other. In this 0-4 point scoring system, 0 represents normal control and 4 represents complete loss of the ability to command hindlimb movement (for example, see FIG. 5A).

[5] = general statement, no test described; cited from earlier work
mice = details: general statement before a planned dose pilot study; cited from earlier work

For `COC(=O)[C@H](c1ccccc1Cl)N1CCc2sccc2C1` [Clopidogrel], the “fully denervated NMJs (analysis of NMJ innervation, FIG. 3B)” value (SOD1^G93A mice [1]) was “fewer fully denervated NMJs”, the TA muscle mass (SOD1^G93A mice [2]) was “significantly preserved the overall mass of the tibialis anterior (TA) muscle” and the TA muscle mass (SOD1^G93A mice [2]; listed as clopidogrel) was “higher TA muscle mass”. The “stride frequency (DigiGait)” value (SOD1^G93A mice [3]; compared to vehicle, n=3-5 (FIG. 4A, 4B)) was “increases stride frequency”, the “swing duration (DigiGait)” value (SOD1^G93A mice [3]; compared to vehicle, n=3-5 (FIG. 4C, 4D)) was “reduces swing duration” and the “percent brake of stride (DigiGait)” value (SOD1^G93A mice [3]; forelimb and hindlimb, versus vehicle (FIG. 4G, 4H)) was “increased”. The “brake time (DigiGait)” value (SOD1^G93A mice [3]; versus vehicle (FIG. 4E, 4F)) was “increased the brake time”, the “intactness of muscle regions in contact with motor axons (NMJ)” value (mouse model of ALS; versus vehicle control (FIG. 11C, 11E)) was “more intact” and the “number of denervated NMJs” value (mouse model of ALS; versus vehicle control (FIG. 11D, 11F)) was “reduces the number of denervated NMJs”. For the same compound, the “disease progression by NeuroScore (0-4 point scoring system)” value (SOD1^G93A mice [4]) was “the disease progressed slower”, the “crossing of the blood-brain-barrier (BBB)” value [5] was “does not cross the blood-brain-barrier” and the “side effects in mice” value (mice) was “lethargy, weight loss and internal bleeding”.
